From patent US12310380B2, “Method for extending shelf-life of agricultural produce” (National Institute of Plant Genome Research, priority 2019, dated 2025)

Tested on: Nanjungud rasbale banana
Experiment: Ripening of banana: NO donors versus hypoxia-induced NO
Type: in vivo
Settings: SNAP 100 μM, chitosan 1%
Procedure: Effects of using hypoxia-induced NO on fruit ripening were tested against the available NO donors such as SNP (Sodium nitroprusside), SNAP (S-Nitroso-N-acetyl-dl-penicillamine), chitosan on Nanjungud rasbale banana. Physiological concentrations of NO donors were used and the concentration for SNP used was 1 mM, SNAP was used in a concentration of 100 μM, chitosan was used in a concentration of 1%. Out of all the treatments, hypoxia-induced NO yielded better results where a significant delay of ripening was observed (Table-1). SNP and chitosan were effective up to 2 days but later they were ineffective on delaying ripening. Even after 3 days of treatment only one fruit ripened in the presence of formula in comparison to other treatments where 60% of fruits were ripened (FIG. 10). […] It was observed that the delay in ripening of bananas by the method of the present disclosure was 7 days as compared to the bananas which were not treated by the method of the present disclosure.

CC(=O)NC(C(=O)O)C(C)(C)SN=O (racemic) [SNAP, S-Nitroso-N-acetyl-dl-penicillamine]
Number of fruits ripened (Day 0, SNP 1 mM): 0 | Number of fruits ripened (Day 1, SNP 1 mM): 0 | Number of fruits ripened (Day 2, SNP 1 mM): 2 | Number of fruits ripened (Day 3, SNP 1 mM): 4
